{"source": "patent US8962641B2", "about": "“Pyrimidine-substituted pyrrolidine derivatives, pharmaceutical compositions and uses thereof” (Boehringer Ingelheim International GmbH, priority 2013, dated 2015)"}
{"target": "human ACC2 (Homo sapiens (Human), UniProt O00763)", "sequence (O00763 129-2458)": "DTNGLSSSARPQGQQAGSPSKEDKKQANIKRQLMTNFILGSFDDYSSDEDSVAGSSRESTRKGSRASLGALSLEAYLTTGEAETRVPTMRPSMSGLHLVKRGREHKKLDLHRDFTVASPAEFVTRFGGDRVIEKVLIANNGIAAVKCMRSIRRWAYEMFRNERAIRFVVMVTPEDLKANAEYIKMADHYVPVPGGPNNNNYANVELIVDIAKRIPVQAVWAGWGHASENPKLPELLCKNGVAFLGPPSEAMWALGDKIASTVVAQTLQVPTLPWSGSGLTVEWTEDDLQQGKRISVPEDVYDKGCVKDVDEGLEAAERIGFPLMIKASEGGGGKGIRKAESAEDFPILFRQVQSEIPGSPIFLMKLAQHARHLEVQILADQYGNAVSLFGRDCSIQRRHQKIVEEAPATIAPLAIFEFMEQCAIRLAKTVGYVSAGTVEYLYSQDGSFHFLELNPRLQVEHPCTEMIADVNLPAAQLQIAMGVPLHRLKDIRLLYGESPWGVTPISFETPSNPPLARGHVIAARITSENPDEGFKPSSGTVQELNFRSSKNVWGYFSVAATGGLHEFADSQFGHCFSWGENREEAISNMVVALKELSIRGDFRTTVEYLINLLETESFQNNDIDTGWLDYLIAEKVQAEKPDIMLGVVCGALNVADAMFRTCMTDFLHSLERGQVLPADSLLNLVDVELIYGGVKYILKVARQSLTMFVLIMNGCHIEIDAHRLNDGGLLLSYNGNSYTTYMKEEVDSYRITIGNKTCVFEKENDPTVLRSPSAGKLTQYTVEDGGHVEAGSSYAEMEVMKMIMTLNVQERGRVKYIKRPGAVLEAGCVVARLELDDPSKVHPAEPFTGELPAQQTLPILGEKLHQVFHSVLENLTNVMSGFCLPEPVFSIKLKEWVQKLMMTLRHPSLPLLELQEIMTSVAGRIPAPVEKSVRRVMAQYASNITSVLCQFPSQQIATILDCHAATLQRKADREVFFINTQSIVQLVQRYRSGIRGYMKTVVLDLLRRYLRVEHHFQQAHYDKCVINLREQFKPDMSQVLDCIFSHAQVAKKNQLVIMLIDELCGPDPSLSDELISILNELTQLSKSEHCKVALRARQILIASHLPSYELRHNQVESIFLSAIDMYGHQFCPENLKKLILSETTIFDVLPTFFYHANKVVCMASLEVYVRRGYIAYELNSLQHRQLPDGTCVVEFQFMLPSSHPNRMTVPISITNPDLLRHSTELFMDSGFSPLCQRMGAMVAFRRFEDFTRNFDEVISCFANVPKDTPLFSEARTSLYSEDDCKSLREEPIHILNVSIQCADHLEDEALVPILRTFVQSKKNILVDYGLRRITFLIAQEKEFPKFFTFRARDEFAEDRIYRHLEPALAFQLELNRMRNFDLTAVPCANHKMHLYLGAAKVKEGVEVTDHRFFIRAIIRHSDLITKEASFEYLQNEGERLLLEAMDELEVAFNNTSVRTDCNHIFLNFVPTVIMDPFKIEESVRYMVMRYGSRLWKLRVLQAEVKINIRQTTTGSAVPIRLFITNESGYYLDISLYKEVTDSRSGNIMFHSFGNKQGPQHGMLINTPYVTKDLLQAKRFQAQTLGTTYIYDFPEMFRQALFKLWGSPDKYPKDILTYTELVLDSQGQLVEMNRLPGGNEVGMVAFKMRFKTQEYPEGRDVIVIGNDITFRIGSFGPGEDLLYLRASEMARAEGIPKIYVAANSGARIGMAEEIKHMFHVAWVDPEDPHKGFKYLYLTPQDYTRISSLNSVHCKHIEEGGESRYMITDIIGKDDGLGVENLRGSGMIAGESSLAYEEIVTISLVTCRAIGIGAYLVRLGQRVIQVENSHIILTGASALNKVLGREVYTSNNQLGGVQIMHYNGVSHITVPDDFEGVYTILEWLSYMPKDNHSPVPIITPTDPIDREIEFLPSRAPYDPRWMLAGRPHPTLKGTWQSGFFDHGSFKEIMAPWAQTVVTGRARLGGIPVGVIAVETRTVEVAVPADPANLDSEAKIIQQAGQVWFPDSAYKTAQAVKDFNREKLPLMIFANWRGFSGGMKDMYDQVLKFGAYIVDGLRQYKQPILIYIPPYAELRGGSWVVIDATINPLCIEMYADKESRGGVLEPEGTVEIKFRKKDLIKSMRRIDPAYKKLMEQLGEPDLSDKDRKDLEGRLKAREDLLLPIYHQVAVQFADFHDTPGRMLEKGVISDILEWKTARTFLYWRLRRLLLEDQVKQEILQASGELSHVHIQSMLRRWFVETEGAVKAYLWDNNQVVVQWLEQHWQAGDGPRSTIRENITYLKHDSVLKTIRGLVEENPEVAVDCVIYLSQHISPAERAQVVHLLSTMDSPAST", "assay": "ACC2 assay (spectrophotometric 384 well assay, NADH-linked kinetic method)", "type": "biochemical", "conditions": "hACC2 construct lacking 128 N-terminal amino acids; coupled lactate dehydrogenase/pyruvate kinase reaction, 340 nm, 25° C.", "summary_of_the_method": "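Baculovirus/insect-cell human ACC2, anion-exchange purified; ADP formation coupled to pyruvate kinase/lactate dehydrogenase, NADH loss followed at 340 nm, 25° C, 15 min. Final 200 μM NADH and acetyl-CoA, 500 uM ATP; vehicle and no-acetyl-CoA wells set 100% and 0%.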", "units": {"IC50": "nM"}}
{"smiles": "CC(=O)N[C@@H](C)c1ccc(O[C@@H]2CCN(c3ncnc(N4CC[C@@H](F)C4)c3F)C2)cc1", "note": "[Example 8.162]", "IC50": 476}
{"smiles": "CC(=O)N[C@@H](C)c1ccc(O[C@@H]2CCN(c3ncnc(OC4CCCC4)c3Cl)C2)cc1", "note": "[Example 7.53]", "IC50": 32}
{"smiles": "CC(=O)N[C@@H](C)c1ccc(O[C@@H]2CCN(c3ncnc(N4CCC[C@@H]4C)c3F)C2)cc1", "note": "[Example 8.284]", "IC50": 240}
{"smiles": "CC(=O)N[C@@H](C)c1ccc(O[C@@H]2CCN(c3ccnc(N4[C@H](C)COC[C@H]4C)n3)C2)cc1", "note": "[Example 8.87]", "IC50": 128}
{"smiles": "CC(=O)N[C@@H](C)c1ccc(O[C@@H]2CCN(c3nc(N4CC(F)(F)C(F)(F)C4)ncc3F)C2)cc1", "note": "[Example 8.217]", "IC50": 145}
{"smiles": "[2H]C([2H])([2H])N(c1ncc(F)c(N2CC[C@@H](Oc3ccc([C@H](C)NC(C)=O)cc3)C2)n1)C([2H])([2H])[2H]", "note": "[Example 8.65]", "IC50": 80}
{"smiles": "C[C@H](NC(=O)N(C)C)c1ccc(OC2CCN(c3ccnc(N(C)CC(F)F)n3)C2)cc1", "note": "(stereo partly shown) [Example 3.1]", "IC50": 40}
{"smiles": "C[C@H](NC(=O)c1ccns1)c1ccc(OC2CCN(c3ccnc(N4CCOCC4)n3)C2)cc1", "note": "(stereo partly shown) [Example 2.5]", "IC50": 535}
{"smiles": "CC(=O)N[C@@H](C)c1ccc(O[C@@H]2CCN(c3ncnc(N(C)C4CCCOC4)c3F)C2)cc1", "note": "(stereo partly shown) [Example 8.236]", "IC50": 314}
{"smiles": "CC(=O)N[C@@H](C)c1ccc(O[C@@H]2CCN(c3nc(N(C)CCOC(C)(C)C)ncc3F)C2)cc1", "note": "[Example 8.215]", "IC50": 719}
{"smiles": "CC(=O)N[C@@H](C)c1ccc(O[C@@H]2CCN(c3nccc(N4CCC(C)(C)C4)n3)C2)cc1", "note": "[Example 8.81]", "IC50": 970}
{"smiles": "CC(=O)N[C@@H](C)c1ccc(O[C@@H]2CCN(c3ccnc(N4CCC(C)(C)C4)n3)C2)cc1", "note": "[Example 8.78]", "IC50": 260}
{"smiles": "CC(=O)N[C@@H](C)c1ccc(O[C@@H]2CCN(c3ncc(OC[C@H]4CC4(F)F)cn3)C2)cc1", "note": "[Example 6.26]", "IC50": 120}
{"smiles": "COC[C@H]1CCCN1c1ncc(F)c(N2CC[C@@H](Oc3ccc([C@H](C)NC(C)=O)cc3)C2)n1", "note": "[Example 8.182]", "IC50": 1120}
{"smiles": "CC(=O)N[C@@H](C)c1ccc(O[C@@H]2CCN(c3ncnc(NC4CCCC4)c3F)C2)cc1", "note": "[Example 8.119]", "IC50": 209}
{"smiles": "CC(=O)N[C@@H](C)c1ccc(O[C@@H]2CCN(c3nc(N(C)CC4CCOC4)ncc3C)C2)cc1", "note": "(stereo partly shown) [Example 8.52]", "IC50": 905}
{"smiles": "CCOc1ncnc(N2CC[C@@H](Oc3ccc([C@H](C)NC(C)=O)cc3)C2)c1F", "note": "[Example 7.26]", "IC50": 148}
{"smiles": "CC(=O)N[C@@H](C)c1ccc(O[C@@H]2CCN(c3ncnc(N4CCCC4)c3Cl)C2)cc1", "note": "[Example 8.103]", "IC50": 120}
{"smiles": "CC(=O)N[C@@H](C)c1ccc(O[C@@H]2CCN(c3ccnc(N(C)CC4CCOC4)n3)C2)cc1", "note": "(stereo partly shown) [Example 8.41]", "IC50": 286}
{"smiles": "CC(=O)N[C@@H](C)c1ccc(O[C@@H]2CCN(c3ccnc(N(C)CCC(F)(F)F)n3)C2)cc1", "note": "[Example 8.206]", "IC50": 75}
{"smiles": "CC(=O)N[C@@H](C)c1ccc(O[C@@H]2CCN(c3nc(N4CC(F)(F)C4)ncc3F)C2)cc1", "note": "[Example 8.67]", "IC50": 130}
{"smiles": "CCN(C)c1ncc(Cl)c(N2CC[C@@H](Oc3ccc([C@H](C)NC(C)=O)cc3)C2)n1", "note": "[Example 8.56]", "IC50": 60}
{"smiles": "CCCNc1ncnc(N2CC[C@@H](Oc3ccc([C@H](C)NC(=O)c4sc(NC(=O)CC)nc4C)cc3)C2)c1Cl", "note": "[Example 8.312]", "IC50": 286}
{"smiles": "CC(=O)N[C@@H](C)c1ccc(O[C@@H]2CCN(c3ncnc(OCC(C)(C)O)c3F)C2)cc1", "note": "[Example 7.32]", "IC50": 145}
{"smiles": "CC(=O)N[C@@H](C)c1ccc(O[C@@H]2CCN(c3ncnc(NCC4CCC4)c3Cl)C2)cc1", "note": "[Example 8.311]", "IC50": 62}
{"smiles": "CCN(CC)c1ncc(C#N)c(N2CC[C@@H](Oc3ccc([C@H](C)NC(C)=O)cc3)C2)n1", "note": "[Example 8.35]", "IC50": 824}
{"smiles": "CC(=O)N[C@@H](C)c1ccc(O[C@@H]2CCN(c3ccnc(N4CCOC(C(F)(F)F)C4)n3)C2)cc1", "note": "(stereo partly shown) [Example 8.88]", "IC50": 130}
{"smiles": "CCN(CCC#N)c1nccc(N2CC[C@@H](Oc3ccc([C@H](C)NC(C)=O)cc3)C2)n1", "note": "[Example 8.72]", "IC50": 167}
